Values quoted from earlier work, collected in patent US7365077B2, “Piperazine bis-amide derivatives and their use as antagonists of the orexin receptor” (SmithKline Beecham p.l.c., priority 2001, dated 2008).
No end group written: not given here.

Key:
[1] = system: freely-feeding rats; settings: central administration, 4 hour time period
[2] = system: orexin receptors; settings: central administration at the onset of the normal sleep period, rat

**Q.** Which “increase in food intake over control rats receiving vehicle” value [1] does the source give for “orexin-A: Peptide ligand (agonist) of the orexin receptors; human sequence given in b87 (QPLPDCCRQKTCSCRLYELLHGAGNHAAGILTL; ends and bridges not checked; cysteine pairing not given here; UniProt O43612 34-66, looked up)” here?
**A.** approximately four-fold

**Q.** What about the effect on arousal [2] of the same substance?
**A.** dose-related increase in arousal
